What was measured:
[1] = tested on: innate live bacterial populations in poultry facility swabs; test: 3-step metabolic labeling of poultry facility swabs with or without EDA, PIPER; type: cell-based
Protocol: Experimental Detail: Swab samples were collected using sponge sticks (3M, Saint Paul, MN) soaked in Letheen broth (samples G, Q) or Neutralizing buffer (sample H). Samples were stored on ice and processed within 24 hours after collection. Eluents from the sponges were aseptically extracted and the rest was frozen at −80° C. until the time of analysis. Prior to 3-step metabolic labeling, an aliquot from each eluent was removed for serial dilution and plating on APC petrifilm (3M, Saint Paul, MN) and incubated as per manufacturer instructions to evaluate the number of total viable bacteria by the “gold standard” method. Each eluent sample was divided into two aliquots for incubation with EDA or without EDA, as a control for non-specific staining with the fluorophore. The 1st step of labeling was carried out by adding 5 μg/mL chloramphenicol and 1 mM EDA, where indicated, followed by 90 min incubation at 37° C. […]
FIG. 24 depicts how 3-step metabolic labeling detects innate live bacterial populations in poultry facility swabs. […] To convert the PIPER counts into the number of live bacteria per swab, the values were corrected for the volume of the viewing window relative to the total sample volume loaded into the cartridge lane, and the fraction of the total eluent volume analyzed.

[2] = tested on: Pseudomonas; test: Two-step labeling with EDA versus NADA-Green, PIPER counts relative to SYBR labeling; type: cell-based; settings: 1 mM EDA 30 minutes plus click reaction solution, compared with 1 mM NADA-Green 60-90 minutes
Source text: Universal labeling of all bacteria presents some challenges. D-amino acid analogs must first penetrate the outer membrane of gram-negative bacteria to be incorporated into peptidoglycan. The smaller size of the “clickable” D-amino acids compared to the FDAAs helps achieve higher labeling efficiency for some gram-negative bacteria. Accordingly, and for example, FIGS. 11A-B depict two-step labeling using the “clickable” D-amino acid, EDA, which improves detection of Pseudomonas. Log phase Pseudomonas growing at 37° C. in BHI (with [Supplemented BHI, red bars] or without [blue bars] supplementation with 50 mM glucose and 10 mM sodium pyruvate) was incubated for 60-90 minutes with 1 mM NADA-Green (Bio-Techne, Minneapolis, MN); or for 30 minutes in the presence or absence of 1 mM clickable D-amino acid, EDA (D-propargylglycine, AK Scientific, Union City, CA). For the unlabeled cells or cells labeled with NADA-Green, the cells were pelleted after incubation and resuspended in 1×PBS. For the cells grown in the presence or absence of EDA, the cells were pelleted after incubation by centrifugation (10 min 10,000 g), and supernatant was discarded. Bacteria were washed with 1 mL of 1× PBS, pelleted by centrifugation again (10 min 10,000 g), and supernatant was discarded. […]

C#CC[C@@H](N)C(=O)O [EDA, D-propargylglycine]
increase in PIPER cell counts over (-EDA) control ([1]; 1 mM EDA, 90 min at 37° C.): ~1.5 log
signal on omitting EDA from the 1st step of labeling ([1]; swab samples H, G and Q): dramatic reduction of the signal
detection efficiency, cell counts relative to counts obtained by SYBR labeling [2]: Highest detection efficiency

Source: patent US20250354192A1, “METHODS FOR QUANTIFYING LIVE BACTERIA” (priority 2022, published 2025)
